Where two headings read alike, the source gives them in different places. Each block holds one molecule with its values, some of them ahead of it. Numbered stars: 1 amine (or outer) side, 2 acyl side, 3 side chain; on linkers, the order of the positions; unused ones are H or OH. Side chains are listed from the residue outwards. Peptide text beside a SMILES is read from it. * marks the point of attachment. γGlu = O=C(O)[C@H](CCC(=O)[*:2])N[*:1]; Palmitoyl = CCCCCCCCCCCCCCCC(=O)*
Legend:
[1] = Stability testing of peptides in human plasma; assay type: in vitro ADME
Procedure: Stability testing of peptides in plasma. The stability in plasma of the peptides […], […], […] and […] was determined as follows. […] The frozen blank plasma from human, rat and mouse had been thawed and heated to a temperature of 37° C. before addition of the stock solution. The spiked plasma samples were gently mixed and allowed to equilibrate for about 5 minutes before start of experiment. The plasma samples were incubated for 48 hours in a Galaxy® CO2 incubator at 37° C. […] The samples were stored at -70° C. until analysis. Plasma samples were assayed as follows. The 30 μL plasma samples were protein precipitated with […] of cold ethanol in a 96-well low bind plate (Eppendorf Protein LoBind). After mixing and centrifugation 100 μl the supernatant was transferred to a new plate and 1 μl was injected onto an analytical column. The analysis was performed using a μLC-system ([…]) coupled to a medium high resolution mass spectrometer (Perkin Elmer PenTOF) with positive electrospray ionisation. […] Flow: 0.1 ml/min using a slow reversed phase gradient. […] Products with +1 mass may arise from deamidation at amide groups of glutamine or at the C-terminus. Cleavage products arise from the action of the protease DPP IV in plasma. Both the degradation of the peptides and formation of peptide products were reported in percentage of the initial peptide concentration. Peaks were integrated and % remaining peptide was calculated: […] Levels of deamidation and DPP IV cleavage were low for […] and […].

human serum albumin = human serum albumin (Homo sapiens, UniProt P02768); test: Fraction of free peptide at plasma concentration of albumin, calculated from variation in cAMP generation with HSA concentration; assay type: in vitro ADME; parameters: purchased Sigma Aldrich
Chain of human serum albumin (P02768 25-609): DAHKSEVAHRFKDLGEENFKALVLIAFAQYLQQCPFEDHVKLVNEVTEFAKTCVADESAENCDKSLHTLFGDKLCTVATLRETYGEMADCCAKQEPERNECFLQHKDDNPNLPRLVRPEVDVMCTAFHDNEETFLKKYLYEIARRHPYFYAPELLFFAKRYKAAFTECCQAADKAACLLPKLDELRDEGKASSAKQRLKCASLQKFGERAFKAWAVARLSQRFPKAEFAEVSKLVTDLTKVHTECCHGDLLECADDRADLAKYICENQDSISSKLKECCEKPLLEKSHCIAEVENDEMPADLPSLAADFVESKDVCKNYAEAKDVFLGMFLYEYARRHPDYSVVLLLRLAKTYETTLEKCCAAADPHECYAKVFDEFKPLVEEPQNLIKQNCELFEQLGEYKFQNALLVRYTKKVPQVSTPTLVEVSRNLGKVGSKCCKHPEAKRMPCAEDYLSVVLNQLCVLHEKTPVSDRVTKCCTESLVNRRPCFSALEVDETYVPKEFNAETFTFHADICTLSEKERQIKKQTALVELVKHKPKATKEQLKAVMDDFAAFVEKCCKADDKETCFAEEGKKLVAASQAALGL

DIO mice = test: Diet induced obesity (DIO) mouse model, study B; assay type: in vivo; settings: for BW day 14 (% change of vehicle mean) / HOMA / Hepatic TG (g TG/100g tissue) / Plasma NEFA / Plasma TG: day 14; for Glucose / Insulin: day 14, 4-hour fasting
Procedure: The body weight of the animals was monitored daily throughout the dosing period At day 14, blood samples for the measurement of plasma glucose and insulin from conscious mice were obtained after a 4-hour fasting period. Mice were then anaesthetized using isofluorane and terminal blood was collected from the capillary bed behind the eye. The following parameters were measured: blood chemistry measurements of triglycerides, total cholesterol, non-esterified fatty acids (NEFA), beta-hydroxybutyrate and fibroblast growth factor 21 (FGF21) (Table 16 and Table 17 below).

Human GIPr = biological target: T1, Human GIPr (Homo sapiens, UniProt P48546); test: cAMP activity assay 1 in assay medium, human GIP receptor; assay type: cell-based; settings: additional peptides (Table 4)
T1 construct: expressed in transfected cells
T1 sequence (P48546 22-466): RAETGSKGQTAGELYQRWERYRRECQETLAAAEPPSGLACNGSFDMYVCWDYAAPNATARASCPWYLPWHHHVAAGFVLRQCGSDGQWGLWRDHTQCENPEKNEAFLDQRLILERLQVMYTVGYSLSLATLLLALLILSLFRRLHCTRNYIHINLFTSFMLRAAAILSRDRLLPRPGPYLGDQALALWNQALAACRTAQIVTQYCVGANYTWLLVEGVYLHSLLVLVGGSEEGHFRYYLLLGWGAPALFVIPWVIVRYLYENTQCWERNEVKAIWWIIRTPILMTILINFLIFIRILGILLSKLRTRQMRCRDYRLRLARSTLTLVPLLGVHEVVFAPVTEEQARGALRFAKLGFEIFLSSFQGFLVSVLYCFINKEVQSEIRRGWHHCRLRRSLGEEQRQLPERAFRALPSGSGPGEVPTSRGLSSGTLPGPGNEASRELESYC

Human GLP1R = Human GLP1R (Homo sapiens, UniProt P43220); settings: read-out: hGLP1R EC50; assay 1; additional peptides (Table 4)
Chain of Human GLP1R (P43220 24-463): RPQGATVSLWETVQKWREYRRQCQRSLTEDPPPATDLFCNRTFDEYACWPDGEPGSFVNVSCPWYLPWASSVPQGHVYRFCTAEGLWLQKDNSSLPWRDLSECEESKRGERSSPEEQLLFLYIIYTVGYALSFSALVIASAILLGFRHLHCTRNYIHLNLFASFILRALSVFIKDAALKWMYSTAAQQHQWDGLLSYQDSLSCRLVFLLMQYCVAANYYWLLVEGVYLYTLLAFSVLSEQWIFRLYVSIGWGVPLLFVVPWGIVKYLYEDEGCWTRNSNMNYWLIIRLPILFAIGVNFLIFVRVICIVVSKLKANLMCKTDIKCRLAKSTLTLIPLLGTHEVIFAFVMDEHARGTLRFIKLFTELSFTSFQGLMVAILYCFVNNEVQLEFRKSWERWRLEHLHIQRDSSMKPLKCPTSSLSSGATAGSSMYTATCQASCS

Human GlucR = Human GlucR (Homo sapiens, UniProt P47871); settings: read-out: hGlucR EC50; assay 1; additional peptides (Table 4)
Chain of Human GlucR (P47871 26-477): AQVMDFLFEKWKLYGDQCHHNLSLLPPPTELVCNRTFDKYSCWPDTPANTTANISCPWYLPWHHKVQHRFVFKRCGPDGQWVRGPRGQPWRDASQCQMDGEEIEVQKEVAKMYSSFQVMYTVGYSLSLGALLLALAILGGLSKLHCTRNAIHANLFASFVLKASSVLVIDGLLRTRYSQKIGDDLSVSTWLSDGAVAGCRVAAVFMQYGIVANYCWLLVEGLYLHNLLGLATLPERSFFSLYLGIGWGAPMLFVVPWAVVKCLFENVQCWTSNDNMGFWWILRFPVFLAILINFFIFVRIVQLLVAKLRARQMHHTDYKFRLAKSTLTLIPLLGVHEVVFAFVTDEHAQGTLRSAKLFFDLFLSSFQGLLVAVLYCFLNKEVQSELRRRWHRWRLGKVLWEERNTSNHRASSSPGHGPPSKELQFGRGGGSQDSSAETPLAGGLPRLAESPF

[2] = frozen blank plasma from rat; settings: 37° C, up to 48 hours
human glucagon receptor [3] = biological target: T2, human glucagon receptor (human, UniProt P47871 26-477); test: cell-based or functional assay
T2 sequence (P47871 26-477): as above

human GLP-1 receptor [4] = biological target: T3, human GLP-1 receptor (human, UniProt P43220 24-463); test: cell-based or functional assay
[5] = biological target: T4, human glucose-dependent insulinotropic peptide (gastric inhibitory polypeptide) receptor (human, UniProt P48546 22-466); test: cell-based or functional assay
T4 sequence (looked up): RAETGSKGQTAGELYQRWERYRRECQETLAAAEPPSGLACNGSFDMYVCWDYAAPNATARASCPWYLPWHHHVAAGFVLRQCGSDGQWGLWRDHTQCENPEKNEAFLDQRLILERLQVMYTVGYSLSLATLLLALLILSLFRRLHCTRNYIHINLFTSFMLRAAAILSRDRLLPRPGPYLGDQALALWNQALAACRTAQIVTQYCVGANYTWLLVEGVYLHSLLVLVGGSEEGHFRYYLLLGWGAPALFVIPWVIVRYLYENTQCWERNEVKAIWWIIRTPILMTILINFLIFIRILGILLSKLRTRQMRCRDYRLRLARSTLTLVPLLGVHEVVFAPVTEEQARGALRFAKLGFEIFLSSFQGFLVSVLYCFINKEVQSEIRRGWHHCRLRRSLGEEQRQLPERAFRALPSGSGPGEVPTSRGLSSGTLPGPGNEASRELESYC

human glucagon receptor [6] = biological target: T2, human glucagon receptor; test: cell-based or functional assay; remark: listed apart in the source
human GLP-1 receptor [7] = biological target: T3, human GLP-1 receptor; test: cell-based or functional assay; remark: listed apart in the source
[8] = biological target: T4, human glucose-dependent insulinotropic …; test: cell-based or functional assay; remark: listed apart in the source
human glucagon receptor [9] = biological target: T2, human glucagon receptor; test: cell-based or functional assay; remark: listed apart in the source
mouse GLP-1 receptor = biological target: T5, mouse GLP-1 receptor (mouse, UniProt O35659 22-463); test: cell-based or functional assay
T5 sequence (looked up): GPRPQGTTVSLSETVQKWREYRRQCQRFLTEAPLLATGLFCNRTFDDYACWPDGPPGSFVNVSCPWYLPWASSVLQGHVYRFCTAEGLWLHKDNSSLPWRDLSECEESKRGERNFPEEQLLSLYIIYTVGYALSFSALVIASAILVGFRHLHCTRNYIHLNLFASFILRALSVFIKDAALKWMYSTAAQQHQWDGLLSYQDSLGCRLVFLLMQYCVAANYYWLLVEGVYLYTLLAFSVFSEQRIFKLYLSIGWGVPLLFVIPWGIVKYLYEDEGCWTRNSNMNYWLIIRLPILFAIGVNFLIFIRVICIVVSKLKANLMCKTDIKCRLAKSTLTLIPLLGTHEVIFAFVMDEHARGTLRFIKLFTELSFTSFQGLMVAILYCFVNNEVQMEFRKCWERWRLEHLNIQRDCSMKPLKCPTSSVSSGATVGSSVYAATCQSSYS

mouse glucagon receptor = mouse glucagon receptor (mouse, UniProt Q61606 27-485); test: cell-based or functional assay
Chain of mouse glucagon receptor (Q61606 27-485): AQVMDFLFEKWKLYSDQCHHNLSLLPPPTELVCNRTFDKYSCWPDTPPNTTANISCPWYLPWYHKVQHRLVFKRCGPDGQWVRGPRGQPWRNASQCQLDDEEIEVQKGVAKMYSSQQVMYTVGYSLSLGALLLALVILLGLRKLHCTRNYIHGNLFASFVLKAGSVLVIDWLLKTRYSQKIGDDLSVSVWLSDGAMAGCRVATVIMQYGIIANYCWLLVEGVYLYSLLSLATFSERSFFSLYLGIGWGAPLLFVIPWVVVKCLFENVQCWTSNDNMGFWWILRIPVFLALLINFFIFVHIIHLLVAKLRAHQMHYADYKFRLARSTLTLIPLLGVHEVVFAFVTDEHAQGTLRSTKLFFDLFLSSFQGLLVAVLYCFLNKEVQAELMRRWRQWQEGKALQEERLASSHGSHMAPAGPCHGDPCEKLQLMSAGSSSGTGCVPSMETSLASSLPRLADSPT

human GLP-1 receptor [10] = biological target: T3, human GLP-1 receptor; test: cell-based or functional assay; remark: listed apart in the source

EC50 (Human GIPr; g688, read-out: hGIPR EC50): 112 nM
Molecule: CCCCCCCCCCCCCCCC(=O)N[C@@H](CCC(=O)NCCCC[C@H](NC(=O)[C@H](CO)NC(=O)[C@H](CC(=O)O)NC(=O)[C@H](CC(C)C)NC(=O)[C@H](Cc1ccc(O)cc1)NC(=O)[C@H](CCCCN)NC(=O)[C@H](CO)NC(=O)[C@H](Cc1ccc(O)cc1)NC(=O)[C@H](CC(=O)O)NC(=O)[C@H](CO)NC(=O)[C@@H](NC(=O)[C@H](Cc1ccccc1)NC(=O)[C@@H](NC(=O)CNC(=O)[C@H](CCC(N)=O)NC(=O)[C@H](CO)NC(=O)[C@@H](N)Cc1c[nH]cn1)[C@@H](C)O)[C@@H](C)O)C(=O)N[C@@H](CCCNC(=N)N)C(=O)N[C@@H](C)C(=O)N[C@@H](CCC(=O)O)C(=O)N[C@@H](CC(=O)O)C(=O)N[C@@H](Cc1ccccc1)C(=O)N[C@H](C(=O)N[C@@H](CCC(N)=O)C(=O)N[C@@H](Cc1c[nH]c2ccccc12)C(=O)N[C@@H](CC(C)C)C(=O)N[C@H](C(=O)N[C@@H](C)C(=O)NCC(=O)NCC(N)=O)C(C)C)C(C)C)C(=O)O [g599]

EC50 (Human GIPr; read-out: hGIPR EC50): 89.6 nM
EC50 (Human GLP1R): 0.0212 nM
EC50 (Human GlucR): 0.00219 nM
Molecule: CCCCCCCCCCCCCCCC(=O)N[C@@H](CCC(=O)NCCCC[C@H](NC(=O)[C@H](Cc1ccc(O)cc1)NC(=O)[C@H](CCCNC(=N)N)NC(=O)[C@H](CO)NC(=O)[C@H](Cc1ccc(O)cc1)NC(=O)[C@H](CC(=O)O)NC(=O)[C@H](CO)NC(=O)[C@@H](NC(=O)[C@H](Cc1ccccc1)NC(=O)[C@@H](NC(=O)CNC(=O)[C@H](CCC(N)=O)NC(=O)[C@H](CO)NC(=O)[C@@H](N)Cc1c[nH]cn1)[C@@H](C)O)[C@@H](C)O)C(=O)N[C@@H](CC(=O)O)C(=O)N[C@@H](CO)C(=O)N[C@@H](CCCNC(=N)N)C(=O)N[C@@H](CO)C(=O)N[C@@H](C)C(=O)N[C@@H](CCCNC(=N)N)C(=O)N[C@@H](CC(=O)O)C(=O)N[C@@H](Cc1ccccc1)C(=O)N[C@H](C(=O)N[C@@H](C)C(=O)N[C@@H](Cc1c[nH]c2ccccc12)C(=O)N[C@@H](CC(C)C)C(=O)N[C@@H](CCC(=O)O)C(=O)N[C@@H](C)C(N)=O)C(C)C)C(=O)O [g850] (H-HSQGTFTSDYSRYK([γGlu-Palmitoyl])DSRSARDFVAWLEA-NH2)

EC50 (Human GLP1R): 0.0745 nM
Molecule: Listed in the section of parent HSQGTFTSDYSKYLDSRRAQDFVQWLEAGG; no modification printed [g536]

Continued, molecule first:

Molecule: CCCCCCCCCCCCCCCC(=O)N[C@@H](CCC(=O)NCCCC[C@H](NC(=O)[C@H](CC(=O)O)NC(=O)[C@H](CO)NC(=O)[C@@H](NC(=O)[C@H](Cc1ccccc1)NC(=O)[C@@H](NC(=O)CNC(=O)[C@H](CCC(N)=O)NC(=O)[C@H](CO)NC(=O)[C@@H](N)Cc1c[nH]cn1)[C@@H](C)O)[C@@H](C)O)C(=O)N[C@@H](CO)C(=O)N[C@@H](CCC(=O)O)C(=O)N[C@@H](Cc1ccc(O)cc1)C(=O)N[C@@H](CC(C)C)C(=O)N[C@@H](CC(=O)O)C(=O)N[C@@H](CO)C(=O)N[C@@H](CCC(=O)O)C(=O)N[C@@H](CCCNC(=N)N)C(=O)N[C@@H](C)C(=O)N[C@@H](CCCNC(=N)N)C(=O)N[C@@H](CC(=O)O)C(=O)N[C@@H](Cc1ccccc1)C(=O)N[C@H](C(=O)N[C@@H](C)C(=O)N[C@@H](Cc1c[nH]c2ccccc12)C(=O)N[C@@H](CC(C)C)C(=O)N[C@@H](CCC(=O)O)C(=O)N[C@@H](C)C(=O)NCC(=O)NCC(=O)O)C(C)C)C(=O)O [Peptide G933]
solubility (physchem; pH 7): ≥ 10000 µg/mL
solubility (physchem; pH 7.2): ≥ 5000 µg/mL
% DPP cleaved product/+1 DPP cleaved product [1]: <1%
free peptide at 4.4% HSA (human serum albumin): 0.29%
BW day 14 (% change of vehicle mean) (DIO mice; 5 nmol/kg s.c. twice daily for 14 days): −11%
HOMA (DIO mice; 5 nmol/kg s.c. twice daily): 3.31
Hepatic TG (g TG/100g tissue) (DIO mice; 5 nmol/kg s.c. twice daily): 11.3 g TG/100g tissue
Plasma NEFA (DIO mice; 5 nmol/kg s.c. twice daily): 0.28 mM
Plasma TG (DIO mice; 5 nmol/kg s.c. twice daily): 0.19 mM
Glucose (DIO mice; 5 nmol/kg s.c. twice daily): 6.2 mM
Insulin (DIO mice; 5 nmol/kg s.c. twice daily): 0.53 nM
BW day 14 (% change of vehicle mean) (DIO mice; 10 nmol/kg s.c. twice daily for 14 days): −19%
HOMA (DIO mice; 10 nmol/kg s.c. twice daily): 1.98
Hepatic TG (g TG/100g tissue) (DIO mice; 10 nmol/kg s.c. twice daily): 14.7 g TG/100g tissue
Plasma NEFA (DIO mice; 10 nmol/kg s.c. twice daily): 0.27 mM
Plasma TG (DIO mice; 10 nmol/kg s.c. twice daily): 0.16 mM
Glucose (DIO mice; 10 nmol/kg s.c. twice daily): 7.2 mM
Insulin (DIO mice; 10 nmol/kg s.c. twice daily): 0.27 nM
effect on body weight over the 14 day dosing period (DIO mice; study B, FIGS. 5-8): dose dependent and continuous weight loss

Molecule: HSQGTFTSDXSRYLDSRSARDFVAWLEAGG-amide X10 = K(gE-palm)
fragment found [2]: DPP IV-cleavage product

Molecule: HGQGTFTSDYSKYLDSKRAQDFVQWLVAGG (X17 = K(gE-palm); C-terminal amide) [G380]
cAMP EC50 (assay 1) (human glucagon receptor [3]): 0.217 nM
cAMP EC50 (assay 1) (human GLP-1 receptor [4]): 0.077 nM
cAMP EC50 (assay 1) [5]: 130 nM
cAMP EC50 (assay 1) (human glucagon receptor [6]): 0.362 nM
cAMP EC50 (assay 1) (human GLP-1 receptor [7]): 0.1 nM
cAMP EC50 (assay 1) [8]: 609 nM
cAMP EC50 (assay 2, 4.4% human serum albumin) (human glucagon receptor [9]): 53.6 nM
cAMP EC50 (assay 2, 3.2% mouse serum albumin) (mouse GLP-1 receptor): 15 nM
cAMP EC50 (assay 2, 3.2% mouse serum albumin) (mouse glucagon receptor): 576 nM
cAMP EC50 (assay 2, 4.4% human serum albumin) (human GLP-1 receptor [10]): 6.54 nM

Reference: patent US20220098265A1 (MEDIMMUNE LIMITED, priority 2012, published 2022)
